Measured values taken from US11690851B2, “Methods and compositions comprising ursolic acid and/or resveratrol for treating diabetes, or cancer” (priority 2014, dated 2023).

Assays:
L6 myotubes = assay: cellular glucose uptake ([3H]-2DG); assay type: cell-based; conditions: Ins 100 nM, Met 1 mM, UA 10 uM, RES 100 uM
Description: L6 myotubes were incubated with UA (10 μM) at different time points.

SENCAR mice [1] = assay: TPA-mediated epidermal thickening (hyperplasia) in mouse skin; assay type: in vivo; conditions: for 2 μg TPA-mediated epidermal thickening: topical 1, 2, or 3 μmol total dose, single agent
Description: (§1) Animals and treatment: Female SENCAR mice, 6-7 weeks old, were purchased from NCI Frederick (Frederick, Md.). The dorsal skin of SENCAR mice were shaved and treated topically twice per week for 2 weeks with 200 μL acetone vehicle or 1-3 μmol UA, 1-3 μmol RES, or an equimolar combination of RES and UA. Each treatment was followed 30 minutes later with topical application of 200 μL acetone vehicle or 1-2 μg of the tumor promoter TPA. In vivo sample collection: Animals were sacrificed 6 hr after the final TPA treatment for Western blotting and 48 hr after the final TPA treatment for histology. For immunohistochemical (IHC) analysis of epidermal proliferation five mice per group were i.p. injected with 100 mg/kg Bromodeoxyuridine (BrdU) in PBS 30 min prior to sacrifice. 1 cm^2 of mouse skin from treated areas was fixed in formalin and paraffin embedded to be analyzed via IHC. Immunohistochemistry (IHC): Slides were immunostained with anti-BrdU antibody. The percentage of BrdU-positive cells in the basal cell layer was determined from at least 10 randomly selected sites per slide (5 mice/group). In addition, the epidermal thickness of each skin sample was also measured at 10 random sites for 5 mice/group, using Image Pro-Discovery from Media Cybernetics (Bethesda, Md.).

NFKB = assay: Luciferase assay for NFKB activity in HaCaT cells; assay type: cell-based, human
Description: Luciferase assay for NFKB activity: HaCaT cells were transfected with the NFKB Cignal Reporter Assay Kit from Qiagen, using Attractene transfection reagent, per manufacturer's instructions. Cells were plated at 1.5×10^4 cells/well in 96 well plates during the transfection. After 16 hr transfection, cells were resupplied with OptiMEM containing 0.5% FBS, 1% non-essential amino acids, 50 U/ml penicillin, and […] for 24 hr. Cells were pretreated with various doses of RES or vehicle for 1 hr, followed by UA or vehicle for 1 hr. TNFα at 10 ng/ml was added and cells were incubated for 4 hr. Luminescence of both the TNFα-induced firefly luciferase and the transfection control Renilla luciferase were measured using the Dual-Luciferase Reporter Assay System from Promega and quantified using a Biotek Synergy HT spectrophotometer.

NFKB subunit p65 = assay: TNFα-mediated p65 phosphorylation in HaCaT keratinocytes, Western blot; assay type: cell-based, human; conditions: preliminary experiments, RES 100 and 200 μM, UA 10 and 20 μM, single agents
Description: Western blotting: HaCaT cells were treated with sub-optimal doses of RES, UA, or RES+UA and stimulated with 10 ng/ml human tumor necrosis factor alpha (TNFα) for 30 min. Cells were scraped into lysis buffer containing 1% Triton X-100, 0.5% IGEPAL, 0.05 M TrisHCl and 0.1 M NaCl as well as protease/phosphatase inhibitors and 5 mM EDT A. For in vivo studies, whole skin was placed on glass over ice and epidermis was removed by scraping and placed in RIPA buffer with protease/phosphatase inhibitors. Lysates were homogenized and proteins were extracted by centrifugation. Twenty micrograms of protein was separated on Bis-Tris gels and transferred onto PVDF membranes. Membranes were blocked in 5% dry milk or BSA and incubated with primary antibodies overnight at 4° C. Membranes were incubated with corresponding HRP-conjugated secondary antibodies for one hour and developed.
As mentioned before, NFKB activity is important during the tumor promotion phase.

[2] = system: Ca3/7 mouse squamous carcinoma cells; assay: MTT assay for cell viability, Ca3/7; assay type: cell-based; conditions: Ca3/7 cells, 200 μM RES
Description: MTT assay for cell viability: Cells were plated at 1.5×10^4 cells/well on 96-well plates. Cells were pretreated with RES or 0.1% vehicle for 1 hr followed by various doses of UA or 0.1% DMSO vehicle for 24 hr. In the experiment with A549 cells, 5.0×10^3 cells/well were plated, and cells were treated with UA or 0.1% DMSO for 48 hr after 1 hr pretreatment with RES or vehicle. MTT reagent (0.5 mg/ml) was added, and cells were incubated for an additional 2.5 hr. Media was removed and formazan crystals were dissolved with 100 μl DMSO. Plates were measured at 570 nm with background subtraction at 650 nm, using a Biotek Synergy HT spectrophotometer. Statistical Analyses: Differences between individual groups were determined by ANOVA. IC50 values were calculated with GraphPad Prism. Resistance Reversal (RR) was calculated by dividing the IC50 value of the UA+vehicle group by the IC50 value of the UA+RES group.

SENCAR mice [3] = assay: TPA-induced epidermal proliferation (BrdU IHC) in mouse skin; assay type: in vivo
Description: as §1

AMPK = AMPK phosphorylation in L6 myotubes; assay type: cell-based; conditions: 30 min, UA 10 μM, RES 100 μM, alone or combined
Description: (§2) L6 myotubes were incubated with UA (10 μM) at different time points. Ursolic acid induced Akt phosphorylation by 1.8, 1.7, and 1.8 fold increase at 30, 45, and 60 min. […] Treatment of L6 myotubes with UA (10 μM) or RES (100 μM) for 30 min increased AMPK phosphorylation by 1.7 and 5.3 fold, respectively.

[4] = system: Akt substrate 160 (AS160); assay: AS160 phosphorylation in L6 myotubes; assay type: cell-based; conditions: UA 10 μM
Description: as §2

Akt = Akt phosphorylation in L6 myotubes; assay type: cell-based; conditions: UA 10 μM
Description: as §2

[5] = 1-3 μmol doses, assayed 48 hr after the final TPA treatment

In the case of `CN(C)C(=N)N=C(N)N` [Met, Metformin, reference compound], the “Mean [3H]-2DG per Min per Protein [ ]” value (L6 myotubes) is reported as 232.19 pmol/mg/min, the “Mean [3H]-DPM corrected for CYTO B” value (L6 myotubes) is reported as 19718.32 DPM/mg and the “fold change from DMSO” value (L6 myotubes) is reported as 1.94 fold.
In the case of `Oc1ccc(C=Cc2cc(O)cc(O)c2)cc1` [RES, resveratrol], the “effect of 1 μg TPA on epidermal thickening” value (SENCAR mice [1]; 2 and 3 μmol doses of RES alone) is reported as “no effect”, the “2 μg TPA-mediated epidermal thickening” value (SENCAR mice [1]) is reported as “no effect” and the “NFKB activity (luciferase reporter)” value (NFKB; RES alone 100 and 200 μM) is reported as “partially inhibited”. For the same compound, the “TNFα-induced NFKB activity (phosphorylation of p65)” value (NFKB subunit p65) was “moderate effect”, the “UA-mediated growth suppression with RES” value [2] was “increases the sensitivity” and the “Mean [3H]-2DG per Min per Protein [ ]” value (L6 myotubes) was 244.97 pmol/mg/min. The “Mean [3H]-DPM corrected for CYTO B” value (L6 myotubes) was 37819.44 DPM/mg, the “fold change from DMSO” value (L6 myotubes) was 2.05 fold and the “2 μg TPA-induced epidermal proliferation” value (SENCAR mice [3]; [5]) was “limited effect”. For the same compound, the AMPK phosphorylation increase (AMPK) was 5.3 fold.
Compound `C[C@H]1[C@H](C)CC[C@]2(C(=O)O)CC[C@]3(C)C(=CC[C@@H]4[C@@]5(C)CC[C@H](O)C(C)(C)[C@@H]5CC[C@]43C)[C@H]12` [UA, Ursolic acid] has an AS160 phosphorylation increase ([4]; 15 min) of 1.3 fold, an AS160 phosphorylation increase ([4]; 30 min) of 2.5 fold and an AS160 phosphorylation increase ([4]; 45 min) of 1.6 fold. For the same compound, the AS160 phosphorylation increase ([4]; 60 min) was 2.3 fold, the “effect of 1 μg TPA on epidermal thickening” value (SENCAR mice [1]; UA alone, 1-3 μmol) was “dose-dependently decreased” and the “2 μg TPA-mediated epidermal thickening” value (SENCAR mice [1]) was “dose-dependently reversed”. For the same compound, the “TNFα-stimulated NFKB activity (luciferase reporter)” value (NFKB; UA alone) was “dose-dependently decreases”, the “TNFα-induced NFKB activity (phosphorylation of p65)” value (NFKB subunit p65) was “moderate effect” and the “Akt phosphorylation fold increase” value (Akt; 30 min) was 1.8 fold. For the same compound, the “Akt phosphorylation fold increase” value (Akt; 45 min) was 1.7 fold, the “Akt phosphorylation fold increase” value (Akt; 60 min) was 1.8 fold and the “Mean [3H]-2DG per Min per Protein [ ]” value (L6 myotubes) was 257.35 pmol/mg/min. For the same compound, the “Mean [3H]-DPM corrected for CYTO B” value (L6 myotubes) was 21855.37 DPM/mg, the “fold change from DMSO” value (L6 myotubes) was 2.15 fold and the “2 μg TPA-induced epidermal proliferation” value (SENCAR mice [3]; 3 μmol of UA alone) was “significantly decreased”. For the same compound, the “2 μg TPA-induced epidermal proliferation” value (SENCAR mice [3]; [5]) was “limited effect”, the “1 μg TPA-induced epidermal proliferation” value (SENCAR mice [3]; UA alone, 1-3 μmol) was “dose-dependently decreased” and the AMPK phosphorylation increase (AMPK) was 1.7 fold.
